Patent publication US20230074545A1, “TREATMENT OF CANCER WITH CDK12/13 INHIBITORS” (Kinnate Biopharma Inc., priority 2019, published 2023)

Key:
Assay in all cases: Radiometric kinase panel
Type in all cases: biochemical
[1] = molecular target: T1, ABL1 (Homo sapiens, UniProt P00519)
T1 construct: purchased ProQinase GmbH (Reaction Biology)
In short: (§1)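 Activity was measured radiometrically from [gamma-33P]-ATP incorporation into substrate. The kinases were recombinant human GST- or His-tagged proteins, full-length or active fragments, expressed in Sf9 or E. coli. Compound in 10% DMSO was added before the enzyme/substrate mix, which started the reaction.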

[2] = molecular target: T2, AKT2 (Homo sapiens, UniProt P31751)
T2 construct: either as full-length or enzymatically active fragments; purchased ProQinase GmbH (Reaction Biology); host or cells: Sf9 insect cells or E. coli (not specified per kinase)
In short: as §1

[3] = molecular target: T3, BRAF (Homo sapiens, UniProt P15056)
T3 construct: purchased ProQinase GmbH (Reaction Biology)
In short: as §1

[4] = molecular target: T4, BUB1B (Homo sapiens, UniProt O60566)
T4 construct: either as full-length or enzymatically active fragments; purchased ProQinase GmbH (Reaction Biology); host or cells: Sf9 insect cells or E. coli
T4 sequence (O60566 whole entry, the tested form may be a part): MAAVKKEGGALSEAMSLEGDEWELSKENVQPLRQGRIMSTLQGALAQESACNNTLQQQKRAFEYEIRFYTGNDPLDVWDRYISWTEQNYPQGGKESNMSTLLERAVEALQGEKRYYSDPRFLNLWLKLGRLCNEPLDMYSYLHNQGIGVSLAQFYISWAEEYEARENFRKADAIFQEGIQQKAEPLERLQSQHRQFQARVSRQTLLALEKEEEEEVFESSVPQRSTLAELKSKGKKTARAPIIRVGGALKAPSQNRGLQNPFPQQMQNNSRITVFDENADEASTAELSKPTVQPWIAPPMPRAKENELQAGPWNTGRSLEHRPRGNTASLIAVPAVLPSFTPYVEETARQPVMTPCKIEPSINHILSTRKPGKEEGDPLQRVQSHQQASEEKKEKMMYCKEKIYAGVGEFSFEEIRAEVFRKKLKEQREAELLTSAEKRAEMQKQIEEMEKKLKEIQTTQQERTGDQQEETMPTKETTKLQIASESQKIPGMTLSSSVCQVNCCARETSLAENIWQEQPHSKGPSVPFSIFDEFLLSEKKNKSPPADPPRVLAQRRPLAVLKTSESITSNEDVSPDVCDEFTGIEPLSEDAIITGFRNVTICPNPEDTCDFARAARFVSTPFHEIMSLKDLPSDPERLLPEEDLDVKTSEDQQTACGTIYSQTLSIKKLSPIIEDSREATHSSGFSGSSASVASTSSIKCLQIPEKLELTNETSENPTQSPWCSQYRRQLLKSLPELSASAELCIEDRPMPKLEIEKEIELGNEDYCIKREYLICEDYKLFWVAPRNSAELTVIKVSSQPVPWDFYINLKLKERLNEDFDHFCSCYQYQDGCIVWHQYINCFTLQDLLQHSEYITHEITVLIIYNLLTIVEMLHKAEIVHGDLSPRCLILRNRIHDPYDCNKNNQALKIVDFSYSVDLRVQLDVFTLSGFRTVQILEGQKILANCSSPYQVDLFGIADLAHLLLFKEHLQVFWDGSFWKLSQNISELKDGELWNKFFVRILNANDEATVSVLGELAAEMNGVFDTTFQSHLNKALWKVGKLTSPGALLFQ
In short: as §1

[5] = molecular target: T5, CDK17/p35NCK (Homo sapiens, UniProt Q00537)
T5 construct: either as full-length or enzymatically active fragments; purchased ProQinase GmbH (Reaction Biology); host or cells: Sf9 insect cells or E. coli
In short: as §1

[6] = molecular target: T6, CDK18/CycY (Homo sapiens, UniProt Q07002)
T6 construct: either as full-length or enzymatically active fragments; purchased ProQinase GmbH (Reaction Biology)
In short: as §1

[7] = molecular target: T7, CDK20/CycT1 (Homo sapiens, UniProt Q8IZL9)
T7 construct: either as full-length or enzymatically active fragments; purchased ProQinase GmbH (Reaction Biology)
In short: as §1

[8] = molecular target: T8, CDK4/CycD3 (Homo sapiens, UniProt P11802)
T8 construct: either as full-length or enzymatically active fragments; purchased ProQinase GmbH (Reaction Biology); host or cells: Sf9 insect cells or E. coli (not specified per kinase)
In short: as §1

[9] = molecular target: T9, CDK5/p25NCK (Homo sapiens, UniProt Q00535)
T9 construct: either as full-length or enzymatically active fragments; purchased ProQinase GmbH (Reaction Biology)
T9 sequence (Q00535 whole entry, the tested form may be a part): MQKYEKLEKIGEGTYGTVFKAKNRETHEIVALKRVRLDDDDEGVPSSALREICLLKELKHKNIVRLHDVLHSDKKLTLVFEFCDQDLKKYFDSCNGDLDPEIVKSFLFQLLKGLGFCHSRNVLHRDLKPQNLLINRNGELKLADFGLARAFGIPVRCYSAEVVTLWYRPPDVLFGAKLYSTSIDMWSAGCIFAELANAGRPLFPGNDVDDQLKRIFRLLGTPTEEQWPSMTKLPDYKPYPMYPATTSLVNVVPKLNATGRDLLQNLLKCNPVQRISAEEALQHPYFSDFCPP
T9 sequence (Q15078 99-307 partner limits assumed): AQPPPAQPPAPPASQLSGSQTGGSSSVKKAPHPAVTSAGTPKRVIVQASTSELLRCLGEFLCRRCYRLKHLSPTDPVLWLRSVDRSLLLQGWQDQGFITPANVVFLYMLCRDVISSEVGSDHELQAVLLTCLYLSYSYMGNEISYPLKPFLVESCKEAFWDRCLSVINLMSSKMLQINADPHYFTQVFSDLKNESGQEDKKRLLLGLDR
In short: as §1

[10] = molecular target: T10, DAPK2 (Homo sapiens, UniProt Q9UIK4)
T10 construct: either as full-length or enzymatically active fragments; purchased ProQinase GmbH (Reaction Biology); host or cells: Sf9 insect cells or E. coli (not specified per kinase)
In short: as §1

[11] = molecular target: T11, DMPK (Homo sapiens, UniProt Q09013)
T11 construct: either as full-length or enzymatically active fragments; purchased ProQinase GmbH (Reaction Biology); host or cells: Sf9 insect cells or E. coli
In short: as §1

[12] = molecular target: T12, EEF2K (Homo sapiens, UniProt O00418)
T12 construct: either as full-length or enzymatically active fragments; purchased ProQinase GmbH (Reaction Biology)
In short: as §1

[13] = molecular target: T13, EPHA7 (Homo sapiens, UniProt Q15375)
T13 construct: either as full-length or enzymatically active fragments; purchased ProQinase GmbH (Reaction Biology)
In short: as §1

[14] = molecular target: T14, EPHB1 (Homo sapiens, UniProt P54762)
T14 construct: either as full-length or enzymatically active fragments; purchased ProQinase GmbH (Reaction Biology)
In short: as §1

[15] = molecular target: T15, EPHB4 (Homo sapiens, UniProt P54760)
T15 construct: either as full-length or enzymatically active fragments; purchased ProQinase GmbH (Reaction Biology)
T15 sequence (P54760 16-987): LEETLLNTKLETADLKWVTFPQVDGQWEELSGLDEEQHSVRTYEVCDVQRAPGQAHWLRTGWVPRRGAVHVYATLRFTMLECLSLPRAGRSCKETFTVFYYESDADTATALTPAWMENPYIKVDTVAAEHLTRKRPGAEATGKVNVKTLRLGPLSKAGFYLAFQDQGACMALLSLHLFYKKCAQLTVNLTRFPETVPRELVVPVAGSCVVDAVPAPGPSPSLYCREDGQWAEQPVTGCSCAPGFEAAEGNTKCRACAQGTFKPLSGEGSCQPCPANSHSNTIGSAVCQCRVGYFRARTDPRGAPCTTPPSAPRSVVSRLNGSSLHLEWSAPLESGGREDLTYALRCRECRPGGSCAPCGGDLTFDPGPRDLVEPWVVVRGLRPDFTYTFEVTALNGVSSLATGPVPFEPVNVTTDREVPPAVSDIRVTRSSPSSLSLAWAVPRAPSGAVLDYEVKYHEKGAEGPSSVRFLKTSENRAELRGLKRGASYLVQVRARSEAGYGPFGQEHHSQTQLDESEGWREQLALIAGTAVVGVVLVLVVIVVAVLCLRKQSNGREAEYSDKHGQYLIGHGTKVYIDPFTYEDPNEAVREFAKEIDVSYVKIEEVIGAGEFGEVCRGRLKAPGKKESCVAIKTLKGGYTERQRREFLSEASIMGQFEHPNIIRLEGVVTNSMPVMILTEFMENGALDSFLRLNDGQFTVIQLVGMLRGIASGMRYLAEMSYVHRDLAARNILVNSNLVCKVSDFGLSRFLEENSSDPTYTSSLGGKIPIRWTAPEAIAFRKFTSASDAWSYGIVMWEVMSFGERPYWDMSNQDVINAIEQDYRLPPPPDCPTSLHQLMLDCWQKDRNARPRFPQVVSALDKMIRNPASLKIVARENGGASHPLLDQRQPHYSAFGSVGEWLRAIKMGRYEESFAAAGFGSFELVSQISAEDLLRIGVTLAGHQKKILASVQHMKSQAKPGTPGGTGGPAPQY
In short: as §1

[16] = molecular target: T16, HIPK2 (Homo sapiens, UniProt Q9H2X6)
T16 construct: purchased ProQinase GmbH (Reaction Biology)
In short: as §1

[17] = molecular target: T17, IRAK4 (Homo sapiens, UniProt Q9NWZ3)
T17 construct: purchased ProQinase GmbH (Reaction Biology)
In short: as §1

[18] = molecular target: T18, JAK3 (Homo sapiens, UniProt P52333)
T18 construct: purchased ProQinase GmbH (Reaction Biology)
In short: as §1

[19] = molecular target: T19, MEK5 (Homo sapiens, UniProt Q13163)
T19 construct: either as full-length or enzymatically active fragments; purchased ProQinase GmbH (Reaction Biology)
T19 sequence (Q13163 whole entry, the tested form may be a part): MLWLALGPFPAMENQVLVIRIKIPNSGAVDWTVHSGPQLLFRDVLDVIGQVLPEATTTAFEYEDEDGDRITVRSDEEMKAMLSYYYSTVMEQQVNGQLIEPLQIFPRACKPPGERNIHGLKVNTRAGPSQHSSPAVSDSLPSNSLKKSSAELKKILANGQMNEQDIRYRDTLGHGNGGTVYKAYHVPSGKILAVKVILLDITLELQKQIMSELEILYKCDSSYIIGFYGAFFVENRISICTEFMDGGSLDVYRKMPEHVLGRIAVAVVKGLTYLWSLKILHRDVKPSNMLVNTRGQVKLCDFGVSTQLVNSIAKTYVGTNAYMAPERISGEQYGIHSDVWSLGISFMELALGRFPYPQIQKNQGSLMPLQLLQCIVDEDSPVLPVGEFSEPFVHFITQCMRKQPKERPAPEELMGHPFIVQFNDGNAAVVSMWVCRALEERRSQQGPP
In short: as §1

[20] = molecular target: T20, MYLK3 (Homo sapiens, UniProt Q32MK0)
T20 construct: either as full-length or enzymatically active fragments; purchased ProQinase GmbH (Reaction Biology)
T20 sequence (Q32MK0 whole entry, the tested form may be a part): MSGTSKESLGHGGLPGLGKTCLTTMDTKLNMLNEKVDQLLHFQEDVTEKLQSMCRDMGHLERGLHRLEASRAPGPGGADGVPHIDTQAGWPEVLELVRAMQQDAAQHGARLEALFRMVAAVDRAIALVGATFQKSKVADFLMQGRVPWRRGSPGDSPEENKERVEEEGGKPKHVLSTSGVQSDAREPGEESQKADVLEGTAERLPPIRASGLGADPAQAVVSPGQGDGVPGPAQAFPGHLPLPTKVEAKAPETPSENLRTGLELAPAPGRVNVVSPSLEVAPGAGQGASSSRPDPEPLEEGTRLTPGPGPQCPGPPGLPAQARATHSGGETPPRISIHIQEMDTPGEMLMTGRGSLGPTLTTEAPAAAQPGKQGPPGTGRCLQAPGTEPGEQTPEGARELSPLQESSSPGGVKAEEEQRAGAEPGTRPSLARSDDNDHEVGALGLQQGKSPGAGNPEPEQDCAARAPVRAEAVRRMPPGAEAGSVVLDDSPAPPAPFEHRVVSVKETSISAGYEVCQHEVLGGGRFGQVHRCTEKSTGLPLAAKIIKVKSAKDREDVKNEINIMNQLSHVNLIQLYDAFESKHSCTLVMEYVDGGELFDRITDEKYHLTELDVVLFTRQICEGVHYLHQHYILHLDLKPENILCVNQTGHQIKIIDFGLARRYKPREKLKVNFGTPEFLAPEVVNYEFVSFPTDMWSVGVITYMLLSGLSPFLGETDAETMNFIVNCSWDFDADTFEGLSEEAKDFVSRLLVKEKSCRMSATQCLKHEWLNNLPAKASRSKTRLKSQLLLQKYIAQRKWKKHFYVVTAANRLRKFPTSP
In short: as §1

[21] = molecular target: T21, NEK7 (Homo sapiens, UniProt Q8TDX7)
T21 construct: either as full-length or enzymatically active fragments; purchased ProQinase GmbH (Reaction Biology); host or cells: Sf9 insect cells or E. coli
In short: as §1

[22] = molecular target: T22, PDGFRbeta (Homo sapiens, UniProt P09619)
T22 construct: either as full-length or enzymatically active fragments; purchased ProQinase GmbH (Reaction Biology)
T22 sequence (P09619 33-1106): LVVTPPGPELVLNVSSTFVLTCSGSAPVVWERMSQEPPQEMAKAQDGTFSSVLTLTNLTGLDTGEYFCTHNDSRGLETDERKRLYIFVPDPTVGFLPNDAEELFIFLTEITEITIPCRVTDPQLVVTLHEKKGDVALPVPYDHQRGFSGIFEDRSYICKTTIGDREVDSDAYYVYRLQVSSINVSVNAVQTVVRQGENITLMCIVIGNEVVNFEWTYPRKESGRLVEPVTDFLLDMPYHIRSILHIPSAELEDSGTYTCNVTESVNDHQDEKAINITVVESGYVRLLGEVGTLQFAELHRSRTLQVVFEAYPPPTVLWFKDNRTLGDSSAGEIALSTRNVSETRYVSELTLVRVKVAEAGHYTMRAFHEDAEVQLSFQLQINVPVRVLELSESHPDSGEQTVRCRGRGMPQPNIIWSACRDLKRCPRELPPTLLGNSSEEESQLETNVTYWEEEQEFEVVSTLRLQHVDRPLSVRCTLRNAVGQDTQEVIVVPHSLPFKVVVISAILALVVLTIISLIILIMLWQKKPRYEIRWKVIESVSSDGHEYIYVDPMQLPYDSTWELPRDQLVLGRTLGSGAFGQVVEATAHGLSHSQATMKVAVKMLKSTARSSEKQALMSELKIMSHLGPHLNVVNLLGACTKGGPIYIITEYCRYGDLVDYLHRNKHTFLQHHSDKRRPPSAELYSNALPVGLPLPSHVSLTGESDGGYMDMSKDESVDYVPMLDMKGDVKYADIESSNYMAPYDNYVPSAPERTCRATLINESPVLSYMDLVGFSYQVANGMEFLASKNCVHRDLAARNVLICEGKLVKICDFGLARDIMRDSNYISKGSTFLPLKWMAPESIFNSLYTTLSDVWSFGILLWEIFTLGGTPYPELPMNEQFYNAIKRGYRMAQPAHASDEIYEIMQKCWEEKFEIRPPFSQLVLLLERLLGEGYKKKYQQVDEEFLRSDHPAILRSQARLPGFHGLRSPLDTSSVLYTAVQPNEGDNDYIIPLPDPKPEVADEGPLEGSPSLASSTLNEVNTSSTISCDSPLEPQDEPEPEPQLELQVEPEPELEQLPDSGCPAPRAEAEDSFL
In short: as §1

[23] = molecular target: T23, PIM1 (Homo sapiens, UniProt P11309)
T23 construct: either as full-length or enzymatically active fragments; purchased ProQinase GmbH (Reaction Biology)
In short: as §1

[24] = molecular target: T24, PKCzeta (Homo sapiens, UniProt Q05513)
T24 construct: either as full-length or enzymatically active fragments; purchased ProQinase GmbH (Reaction Biology)
In short: as §1

[25] = molecular target: T25, RIPK5 (Homo sapiens, UniProt Q6XUX3)
T25 construct: purchased ProQinase GmbH (Reaction Biology)
In short: as §1

[26] = molecular target: T26, RPS6KA5 (Homo sapiens, UniProt O75582)
T26 construct: either as full-length or enzymatically active fragments; purchased ProQinase GmbH (Reaction Biology); host or cells: Sf9 insect cells or E. coli (not specified per kinase)
In short: as §1

[27] = molecular target: T27, SRC (Homo sapiens, UniProt P12931)
T27 construct: either as full-length or enzymatically active fragments; purchased ProQinase GmbH (Reaction Biology)
In short: as §1

[28] = molecular target: T28, SRMS (Homo sapiens, UniProt Q9H3Y6)
T28 construct: purchased ProQinase GmbH (Reaction Biology)
In short: as §1

[29] = molecular target: T29, VRK1 (Homo sapiens, UniProt Q99986)
T29 construct: either as full-length or enzymatically active fragments; purchased ProQinase GmbH (Reaction Biology)
In short: as §1

[30] = molecular target: T30, ZAP70 (Homo sapiens, UniProt P43403)
T30 construct: either as full-length or enzymatically active fragments; purchased ProQinase GmbH (Reaction Biology)
In short: as §1

[31] = molecular target: T31, p38delta (Homo sapiens, UniProt O15264)
T31 construct: either as full-length or enzymatically active fragments; purchased ProQinase GmbH (Reaction Biology)
In short: as §1

C=CC(=O)Nc1ccc(C(=O)N2CC[C@@H](Nc3ncc(C#N)cn3)C2)cc1 [Compound 4, (R)-N-(4-(3-((5-cyanopyrimidin-2-yl)amino)pyrrolidine-1-carbonyl)phenyl)acrylamide]
inhibition at 1 µM [1]: -1%
inhibition at 1 µM [2]: 11%
inhibition at 1 µM [3]: 0%
inhibition at 1 µM [4]: 13%
inhibition at 1 µM [5]: 12%
inhibition at 1 µM [6]: 20%
inhibition at 1 µM [7]: 5%
inhibition at 1 µM [8]: 10%
inhibition at 1 µM [9]: 3%
inhibition at 1 µM [10]: 9%
inhibition at 1 µM [11]: 11%
inhibition at 1 µM [12]: 15%
inhibition at 1 µM [13]: -3%
inhibition at 1 µM [14]: -3%
inhibition at 1 µM [15]: -4%
inhibition at 1 µM [16]: 0%
inhibition at 1 µM [17]: 0%
inhibition at 1 µM [18]: -1%
inhibition at 1 µM [19]: 23%
inhibition at 1 µM [20]: 4%
inhibition at 1 µM [21]: -15%
inhibition at 1 µM [22]: 6%
inhibition at 1 µM [23]: 3%
inhibition at 1 µM [24]: -3%
inhibition at 1 µM [25]: 0%
inhibition at 1 µM [26]: 10%
inhibition at 1 µM [27]: -5%
inhibition at 1 µM [28]: -2%
inhibition at 1 µM [29]: 2%
inhibition at 1 µM [30]: -6%
inhibition at 1 µM [31]: 5%
